This is an account of results in patent publication US4216214A, “4-Tert. butyl-3'-chlorodiphenylamine derivatives, their preparation and their application as anti-histaminic drugs” (PRODESIN (Productos Esteve Internacional S.A.), priority 1977, dated 1980).

“And” between values parts separate entries of the source, which are not always exact repeats. Equal entries are not always repeated.

Series [1] deals with gastric secretion stimulated by carbachol. Put plainly: Gastric anti-secretory action, secretion stimulated by carbachol (Ghosh and Schild method). The format is in vivo, Sprague-Dawley rats. The following applies: Rattus norvegicus; intravenous dose inhibiting by 50% the gastric secretion caused by carbachol 5 nmoles/kg i.v., rats; read-out: DI-50 with carbachol. On the procedure: (§1) Sprague-Dawley rats having a body weight of from 300 to 350 g are used for studying the antagonistic action of the "H2 " histamine receptor sites by the method described by Ghosh and Schild (1958). The gastric secretion is stimulated by intravenous injection of constant doses of histamine (2.5 μmoles/kg) or of carbachol (5 nmoles /kg). The gastric anti-secretory action is then determined by the intravenous dose (in μmole/kg) of derivative which inhibits by 50% the effect caused by the histamine or carbachol (DI-50).

The subject of series [2] is Ileum of Guinea Pig (agonist Acetyl Choline). Put plainly: Test on isolated organ: contraction by acetyl choline. The format is cell-based. The following applies: Cavia porcellus, agonist Acetyl Choline 0.05 μ, read-out: Cl-50 of products, Acetyl Choline. On the procedure:
(§2) During this test, the products are added to the bath in an aqueous solution. The interaction of the various products is determined with different […]: Histamine, acetyl choline, serotonine and norepinephrine. The […] are employed in constant doses to produce contractions in the various biological reactants described below in table III.
(§3) The micromolar concentration which inhibits 50% of the response produced by the constant concentration of each agonist (Cl-50) is determined for each derivative.

For series [3], the system named is Deferent of Rat (agonist Norepinephrine). Put plainly: Test on isolated organ: contraction by norepinephrine. The format is cell-based. The following applies: agonist Norepinephrine 1.0 μ, read-out: Cl-50 of products, Norepinephrine. The protocol:
as §2, §3

Series [4] relates to Ileum of Guinea Pig (agonist Histamine). Put plainly: Test on isolated organ: contraction by histamine. The format is cell-based. To be noted: Cavia porcellus, agonist Histamine 0.05 μ, read-out: Cl-50 of products, Histamine. The protocol:
as §2, §3

A short description of a further series: Acute toxicity in mice. The following applies: mouse, in vivo. The protocol:
The lethal dose 50 (LD-50) of various derivatives administered orally and intra-peritoneally to mice weighing between 20 and 25 g was determined.

Series [5] concerns "H2" histamine receptor sites. Put plainly: Gastric anti-secretory action, secretion stimulated by histamine (Ghosh and Schild method). It is filed as in vivo, Sprague-Dawley rats. To be noted: intravenous dose inhibiting by 50% the gastric secretion caused by histamine 2.5 μmoles/kg i.v., rats. The protocol: as §1
Series [6] deals with Uterus of Rat (agonist Seratonine). Put plainly: Test on isolated organ: contraction by serotonine. The format is cell-based. To be noted: agonist Seratonine 0.10 μ, read-out: Cl-50 of products, Seratonine. The protocol:
as §2, §3

Series [7] is described as follows: Sub-acute toxicity by oral means with rats. To be noted: rat, in vivo. On the procedure:
Three batches of Sprague-Dawley rats each consisting of six males and six females were used. N-(2-piperidinoethyl)-4-tertiary-butyl-3'-chlorodiphenylamine hydrochloride was administered orally to the first two batches in doses of 200 mg/kg and 50 mg/kg respectively. The third batch received a zero dose (distilled water) and was thus used as a control.

Another series is described as follows: Acute toxicity in rats. To be noted: rat, in vivo; Sprague-Dawley rats 150 to 180 g, oral; read-out: LD-50 by the oral route in rats. The protocol: The acute toxicity was determined by oral means in Sprague-Dawley rats having a body weight of 150 to 180 g. The LD-50 of N-(2-piperidinoethyl)-tertiary-butyl-3'-chlorodiphenylamine hydrochloride by the oral route in rats is above 3500 mg/kg.

Where [8] appears, read: ip, mice 20-25 g, intra-peritoneal, read-out: LD-50 i.p.
[9] abbreviates: mice 20-25 g, oral, read-out: LD-50 Orally.

With `CCN(CC)CCN(c1ccc(C(C)(C)C)cc1)c1cccc(Cl)c1` [Example 3, N(2-diethylaminoethyl)-4-tert.butyl 3'-chlorodiphenylamine], in series [1], the ED50 is greater than 20 µmol/kg. Further, the IC50 in series [2] worked out at 25.3 µM; in series [3], 25 µM; in series [4] it was 27.9 µM; in [6], 2.6 µM. In addition, the LD50 was 395 mg/kg and 1000 µmol/kg in the series “Acute toxicity in mice” (setting [8]); > 6000 mg/kg and > 15000 µmol/kg in the series “Acute toxicity in mice” (setting [9]). For the same compound, the DI-50 with histamine in [5] was determined as 6.0 µmol/kg.
Usually mortality stands for the percentage killed. Regarding `CC(C)(C)c1ccc(N(CCN2CCCCC2)c2cccc(Cl)c2)cc1` [Example 1, N-(2-piperidino-ethyl)-4-tertiary butyl-3'-chlorodiphenylamine], in series [1], the ED50 is greater than 20 µmol/kg. For the same compound, the IC50 amounted to 25.5 µM in [2], 24.5 µM in series [3], 2.25 µM in series [4] and 0.38 µM in series [6]. For the same compound, the mortality in [7] (50 mg/kg) was determined as 8.33%; in series [7] (200 mg/kg), 33%. Also, the LD50 is 1000 mg/kg and 2450 µmol/kg in “Acute toxicity in mice” (ip, read-out: LD-50 i.p.); > 3500 mg/kg and > 8500 µmol/kg in “Acute toxicity in mice” (po, read-out: LD-50 Orally); greater than 3500 mg/kg in the series “Acute toxicity in rats”. Further, the DI-50 with histamine in [5] came to 1.0 µmol/kg.
Consider `CC(C)(C)c1ccc(N(CCN2CCCC2)c2cccc(Cl)c2)cc1` [Example 4, N(2-pyrrolidinoethyl)-4-tert.butyl 3'-chlorodiphenylamine], for which the ED50 in series [1] is 20 µmol/kg. The IC50 in [2] came to 25.4 µM; in series [3], 25.4 µM; in series [4] it was 19.8 µM; in series [6] it was 0.05 µM. Moreover, the LD50 was 155 mg/kg and 390 µmol/kg in “Acute toxicity in mice” (setting [8]); 3000 mg/kg and 7620 µmol/kg in “Acute toxicity in mice” (setting [9]). The DI-50 with histamine in series [5] amounted to 2.2 µmol/kg.
